Results taken from ChEMBL document CHEMBL1201862, “PubChem BioAssay data set” (2004).
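48-hour exposure; five concentrations; linearly interpolated endpoints. GI50 = concentration required for 50% inhibition of growth.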 Calls of active or inactive are those of the source. Rule as the data show it: active = GI50 up to about 1.1 µM and inactive = higher.

What was measured:
Assay in all cases: NCI tumour cell line growth inhibition, 48 h
SK-MEL-2 = test system: SK-MEL-2
SR = test system: SR
OVCAR-8 = test system: OVCAR-8
MCF7 = test system: MCF7
OVCAR-5 = test system: OVCAR-5
U-251 = test system: U-251
HCC 2998 = test system: HCC 2998
LOX IMVI = test system: LOX IMVI
NCI-H460 = test system: NCI-H460
RPMI-8226 = test system: RPMI-8226
Malme-3M = test system: Malme-3M
SK-MEL-5 = test system: SK-MEL-5
MDA-MB-435 = test system: MDA-MB-435
OVCAR-4 = test system: OVCAR-4
COLO 205 = test system: COLO 205
IGROV-1 = test system: IGROV-1
SF-268 = test system: SF-268
A549 = test system: A549
SNB-19 = test system: SNB-19
CAKI-1 = test system: CAKI-1

Row | Compound | GI50 (SK-MEL-2) | GI50 (SR) | GI50 (OVCAR-8) | GI50 (MCF7) | GI50 (OVCAR-5) | GI50 (U-251) | GI50 (HCC 2998) | GI50 (LOX IMVI) | GI50 (NCI-H460) | GI50 (RPMI-8226) | GI50 (Malme-3M) | GI50 (SK-MEL-5) | GI50 (MDA-MB-435) | GI50 (OVCAR-4) | GI50 (COLO 205) | GI50 (IGROV-1) | GI50 (SF-268) | GI50 (A549) | GI50 (SNB-19) | GI50 (CAKI-1)
1 | Cc1cc2c3c([nH]c2c2ccnc(C)c12)CCCC3 | 1.62 µM (inactive) | 1.93 µM (inactive) | 2.18 µM (inactive) | 1.43 µM (inactive) | 3.65 µM (inactive) | 1.88 µM (inactive) | 1.95 µM (inactive) | 1.96 µM (inactive) | 1.94 µM (inactive) | 1.84 µM (inactive) | 1.29 µM (inactive) | 1.55 µM (inactive) | 1.88 µM (inactive) | 2.24 µM (inactive) | 1.69 µM (inactive) | 2.23 µM (inactive) | 3.75 µM (inactive) | 2.12 µM (inactive) | – | –
2 | O=C(C/N=C(\CN(c1ccccc1)c1ccccc1)Oc1c(Cl)cc(Cl)cc1Cl)N1c2ccccc2Sc2ccccc21 | – | 35.2 µM (inactive) | 35.4 µM (inactive) | 32.3 µM (inactive) | 30.4 µM (inactive) | 53.5 µM (inactive) | 36.7 µM (inactive) | – | 56.4 µM (inactive) | 62.2 µM (inactive) | 31 µM (inactive) | 21.4 µM (inactive) | 34.2 µM (inactive) | 88.7 µM (inactive) | 34.8 µM (inactive) | 28.2 µM (inactive) | 81.7 µM (inactive) | 54.5 µM (inactive) | > 100 µM (inactive) | –
3 | CNC1(C(=O)O)CC1 | – | > 100 µM (inactive) | > 100 µM (inactive) | > 100 µM (inactive) | > 100 µM (inactive) | > 100 µM (inactive) | > 100 µM (inactive) | > 100 µM (inactive) | > 100 µM (inactive) | > 100 µM (inactive) | > 100 µM (inactive) | > 100 µM (inactive) | > 100 µM (inactive) | > 100 µM (inactive) | – | > 100 µM (inactive) | > 100 µM (inactive) | > 100 µM (inactive) | > 100 µM (inactive) | –
4 | CC1OC2OC3C(OCC(O)C3O)OC(=O)[C@]34CCC(C)(C)CC3C3=CCC5[C@@]6(C)C[C@H](O)[C@H](OC7OC(CO)C(O)C(O)C7OC7OC(COC(=O)CC(C)(O)CC(=O)OC1C(O)C2O)C(O)C(O)C7O)[C@@](C)(CO)C6CC[C@@]5(C)[C@]3(C)CC4 (stereo not given in full) | 1.59 µM (inactive) | 1.6 µM (inactive) | 1.65 µM (inactive) | 4.46 µM (inactive) | 1.61 µM (inactive) | 1.57 µM (inactive) | 1.32 µM (inactive) | 1.61 µM (inactive) | 1.8 µM (inactive) | 1.66 µM (inactive) | – | 1.21 µM (inactive) | 1.57 µM (inactive) | 1.51 µM (inactive) | 1.52 µM (inactive) | 1.24 µM (inactive) | 1.54 µM (inactive) | 1.32 µM (inactive) | 1.68 µM (inactive) | 1.45 µM (inactive)
5 | O=C1c2c(ccc3c2CCCC3)CC12Cc1ccc3c(c1C2=O)CCCC3 | > 100 µM (inactive) | > 100 µM (inactive) | > 100 µM (inactive) | > 100 µM (inactive) | > 100 µM (inactive) | 56.9 µM (inactive) | > 100 µM (inactive) | > 100 µM (inactive) | > 100 µM (inactive) | > 100 µM (inactive) | 28.2 µM (inactive) | > 100 µM (inactive) | > 100 µM (inactive) | > 100 µM (inactive) | – | > 100 µM (inactive) | > 100 µM (inactive) | > 100 µM (inactive) | > 100 µM (inactive) | –
6 | C(=N\C12CC3CC(CC(C3)C1)C2)/C1CCCCC1 | > 100 µM (inactive) | > 100 µM (inactive) | > 100 µM (inactive) | > 100 µM (inactive) | > 100 µM (inactive) | > 100 µM (inactive) | > 100 µM (inactive) | – | > 100 µM (inactive) | > 100 µM (inactive) | > 100 µM (inactive) | > 100 µM (inactive) | > 100 µM (inactive) | > 100 µM (inactive) | > 100 µM (inactive) | > 100 µM (inactive) | > 100 µM (inactive) | > 100 µM (inactive) | > 100 µM (inactive) | > 100 µM (inactive)
7 | COC(=O)C1C(O)C(C)C(=O)C(C)/C=C\C=C(C)C(=O)Nc2c(C)c(OC(C)=O)c3c(c2O)C(=O)C(C)=C2OCOC(=C23)C(C)=CC(C)(O)C(O)C(C)C1O (stereo not given) | 25.2 µM (inactive) | 30.3 µM (inactive) | 33.7 µM (inactive) | 27.4 µM (inactive) | 29 µM (inactive) | 96.8 µM (inactive) | 21 µM (inactive) | 24.9 µM (inactive) | 32.7 µM (inactive) | > 100 µM (inactive) | 22.2 µM (inactive) | 14.5 µM (inactive) | 39.2 µM (inactive) | – | 25.1 µM (inactive) | 21.7 µM (inactive) | 99.8 µM (inactive) | 20.2 µM (inactive) | > 100 µM (inactive) | 44.2 µM (inactive)
8 | O=C1/C(=C/c2ccc(O)cc2)CCC1CNc1ccccc1 (stereo not given) | – | 1.74 µM (inactive) | 16 µM (inactive) | 2.25 µM (inactive) | 17.7 µM (inactive) | 16.4 µM (inactive) | 18.8 µM (inactive) | 8.38 µM (inactive) | 26.3 µM (inactive) | 1.15 µM (inactive) | 15.3 µM (inactive) | 16.8 µM (inactive) | 18.7 µM (inactive) | 19.1 µM (inactive) | 11.1 µM (inactive) | 11.3 µM (inactive) | 14.8 µM (inactive) | 17.8 µM (inactive) | 16.3 µM (inactive) | 12.5 µM (inactive)
9 | CC1CC(=O)N(N(C)C)C(C#N)(C#N)C1(C#N)C#N (stereo not given) | 25.5 µM (inactive) | 4.99 µM (inactive) | 20.9 µM (inactive) | 22.4 µM (inactive) | 23.9 µM (inactive) | 20.9 µM (inactive) | 18.5 µM (inactive) | 17 µM (inactive) | – | 4.14 µM (inactive) | 12.2 µM (inactive) | 21.9 µM (inactive) | 17 µM (inactive) | 18.3 µM (inactive) | 3 µM (inactive) | 20.2 µM (inactive) | 35.8 µM (inactive) | 24.8 µM (inactive) | 28.7 µM (inactive) | 2.3 µM (inactive)
10 | O=C(/C=C/c1ccccc1)OCC1=C[C@@H](O)[C@@H]2C=CO[C@@H](OC3OC(CO)C(O)C(O)C3O)[C@H]12 (stereo not given in full) | > 100 µM (inactive) | > 100 µM (inactive) | > 100 µM (inactive) | > 100 µM (inactive) | > 100 µM (inactive) | > 100 µM (inactive) | > 100 µM (inactive) | > 100 µM (inactive) | – | > 100 µM (inactive) | > 100 µM (inactive) | > 100 µM (inactive) | > 100 µM (inactive) | 67.6 µM (inactive) | > 100 µM (inactive) | > 100 µM (inactive) | > 100 µM (inactive) | > 100 µM (inactive) | 95.9 µM (inactive) | > 100 µM (inactive)
11 | Nc1nc(O)c(Br)c(-c2cccc([N+](=O)[O-])c2)n1 | > 100 µM (inactive) | 64 µM (inactive) | 73.5 µM (inactive) | > 49.2 µM (inactive) | > 69.8 µM (inactive) | > 100 µM (inactive) | > 100 µM (inactive) | > 100 µM (inactive) | > 81.8 µM (inactive) | 37.8 µM (inactive) | – | > 59.6 µM (inactive) | > 100 µM (inactive) | > 100 µM (inactive) | > 100 µM (inactive) | > 83.8 µM (inactive) | > 82.4 µM (inactive) | > 46.9 µM (inactive) | 25.9 µM (inactive) | 58.5 µM (inactive)
12 | CN(C)Cc1cc(C(=O)/C=C/c2c(Cl)cccc2Cl)cc(CN(C)C)c1O | – | 3.18 µM (inactive) | 3.55 µM (inactive) | 3.71 µM (inactive) | 18.2 µM (inactive) | 11.4 µM (inactive) | 19 µM (inactive) | 1.77 µM (inactive) | 3.72 µM (inactive) | 4.78 µM (inactive) | 3.69 µM (inactive) | 3.76 µM (inactive) | 9.2 µM (inactive) | 8.55 µM (inactive) | 2.96 µM (inactive) | 7.83 µM (inactive) | 11.9 µM (inactive) | 11.5 µM (inactive) | 14.8 µM (inactive) | 2.88 µM (inactive)
13 | CCSc1nc(-c2cccs2)nc2ccc(I)cc12 | > 100 µM (inactive) | > 100 µM (inactive) | > 100 µM (inactive) | 13.1 µM (inactive) | > 100 µM (inactive) | > 100 µM (inactive) | > 100 µM (inactive) | > 100 µM (inactive) | > 100 µM (inactive) | > 100 µM (inactive) | – | > 100 µM (inactive) | > 100 µM (inactive) | > 100 µM (inactive) | > 100 µM (inactive) | > 100 µM (inactive) | > 100 µM (inactive) | > 100 µM (inactive) | > 100 µM (inactive) | > 100 µM (inactive)
14 | N[C@H](C(=O)O)[C@@H]1CC(Cl)=NO1 [ACIVICIN] | 4.61 µM (inactive) | 0.74 µM (active) | 2.18 µM (inactive) | 0.676 µM (active) | 7.71 µM (inactive) | 2.21 µM (inactive) | 8.99 µM (inactive) | 1.46 µM (inactive) | 0.452 µM (active) | 3.3 µM (inactive) | 4.26 µM (inactive) | 1.99 µM (inactive) | 3.9 µM (inactive) | 14.6 µM (inactive) | 5.92 µM (inactive) | 0.698 µM (active) | 1.53 µM (inactive) | 0.916 µM (active) | – | 2.52 µM (inactive)
